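The concentration for 50% growth inhibition is given as GI50. The concentration for full growth arrest is given as TGI.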
How the values were obtained:
Assay in all cases: NCI-60 cell line screen, 384-well format
786-0 renal = system: 786-0 renal
A498 renal = system: A498 renal
A549 NSCLC = system: A549 NSCLC
ACHN renal = system: ACHN renal
BT-549 breast = system: BT-549 breast
CAKI-1 renal = system: CAKI-1 renal
CCRF-CEM leukemia = system: CCRF-CEM leukemia
COLO 205 colon = system: COLO 205 colon
DU-145 prostate = system: DU-145 prostate
HCC-2998 colon = system: HCC-2998 colon
HCT-116 colon = system: HCT-116 colon
HCT-15 colon = system: HCT-15 colon
HL-60(TB) leukemia = system: HL-60(TB) leukemia
HOP-62 NSCLC = system: HOP-62 NSCLC
HOP-92 NSCLC = system: HOP-92 NSCLC
HT29 colon = system: HT29 colon
IGROV1 ovarian = system: IGROV1 ovarian
K-562 leukemia = system: K-562 leukemia
KM12 colon = system: KM12 colon
LOX IMVI melanoma = system: LOX IMVI melanoma
M14 melanoma = system: M14 melanoma
MALME-3M melanoma = system: MALME-3M melanoma
MCF7 breast = system: MCF7 breast
MDA-MB-435 melanoma = system: MDA-MB-435 melanoma
MDA-MB-468 breast = system: MDA-MB-468 breast
MOLT-4 leukemia = system: MOLT-4 leukemia
NCI-H226 lung = system: NCI-H226 lung

CN[C@@H](C)C(=O)N[C@H](C(=O)N1CCC[C@H]1C(=O)N[C@H]1c2ccccc2C[C@H]1OCC#CC#CCO[C@@H]1Cc2ccccc2[C@@H]1NC(=O)[C@@H]1CCCN1C(=O)[C@@H](NC(=O)[C@H](C)NC)C1CCCCC1)C1CCCCC1
GI50 ([…]-0 renal): 2.92 µM | TGI (786-0 renal): 11.4 µM | GI50 (A498 renal): 13.5 µM | TGI (A498 renal): 26.3 µM | GI50 (A549 NSCLC): 5.33 µM | TGI (A549 NSCLC): 18.6 µM | GI50 (ACHN renal): 15.3 µM | TGI (ACHN renal): 28.6 µM | GI50 (BT-549 breast): < 0.01 µM | TGI (BT-549 breast): 1.92 µM | GI50 (CAKI-1 renal): 15.1 µM | TGI (CAKI-1 renal): 28.4 µM | GI50 (CCRF-CEM leukemia): < 0.01 µM | TGI (CCRF-CEM leukemia): 1.31 µM | GI50 (COLO 205 colon): 1.37 µM | TGI (COLO 205 colon): 2.66 µM | GI50 (DU-145 prostate): 1.04 µM | TGI (DU-145 prostate): 2.53 µM | GI50 (HCC-2998 colon): 1.62 µM | TGI (HCC-2998 colon): 2.98 µM | GI50 (HCT-116 colon): 1.67 µM | TGI (HCT-116 colon): 3.12 µM | GI50 (HCT-15 colon): 18 µM | TGI (HCT-15 colon): 31.9 µM | GI50 (HL-60(TB) leukemia): < 0.01 µM | TGI (HL-60(TB) leukemia): < 0.01 µM | GI50 (HOP-62 NSCLC): 0.0349 µM | TGI (HOP-62 NSCLC): 0.441 µM | GI50 (HOP-92 NSCLC): < 0.01 µM | TGI (HOP-92 NSCLC): 0.641 µM | GI50 (HT29 colon): 1.66 µM | TGI (HT29 colon): 3.1 µM | GI50 (IGROV1 ovarian): 1.78 µM | TGI (IGROV1 ovarian): 3.46 µM | GI50 (K-562 leukemia): 2.32 µM | TGI (K-562 leukemia): 6.27 µM | GI50 (KM12 colon): 1.65 µM | TGI (KM12 colon): 3.03 µM | GI50 (LOX IMVI melanoma): 2.12 µM | TGI (LOX IMVI melanoma): 3.56 µM | GI50 (M14 melanoma): 1.9 µM | TGI (M14 melanoma): 3.49 µM | GI50 (MALME-3M melanoma): < 0.01 µM | TGI (MALME-3M melanoma): < 0.01 µM | GI50 (MCF7 breast): 1.33 µM | TGI (MCF7 breast): 2.62 µM | GI50 (MDA-MB-435 melanoma): < 0.01 µM | TGI (MDA-MB-435 melanoma): 2.03 µM | GI50 (MDA-MB-468 breast): < 0.01 µM | TGI (MDA-MB-468 breast): < 0.01 µM | GI50 (MOLT-4 leukemia): 1.48 µM | TGI (MOLT-4 leukemia): 2.8 µM | GI50 (NCI-H226 lung): 6.96 µM | TGI (NCI-H226 lung): 19.8 µM

Source: PubChem BioAssay (NCI)
